Measurements taken from patent publication US12653186B2, “[(1-phenyl-5-(heteroaryl)-1H-1,2,4-triazol-3-yl)oxy] acetic acid derivatives as safeners for the protection of useful plants and crop plants” (BAYER AKTIENGESELLSCHAFT, priority 2020, dated 2026).

Legend:
summer barley (HORVS) = test: Reduction of damage by mesosulfuron-methyl on summer barley (safener action, greenhouse, post-emergence); type: in vivo, summer barley (HORVS; cv. Montoya); set-up: key: 0: no reduction in damage (appearance corresponding to the herbicide control); 1: slight reduction in damage; 2: distinct reduction in damage; 3: significant reduction in damage; 4: complete reduction in damage (appearance corresponding to the untreated control); settings: then mesosulfuron-methyl 40-60 g/ha, visual assessment 9-13 days after application, 2 repeats
Procedure: (§1) 2.2 Relative Action of Selected Compounds of the Invention Using the Example of Reduction of Damage by Mesosulfuron-Methyl on Summer Barley (HORVS) The seeds of the crop plants to be treated are laid out in sandy loam in plastic pots (diameter ˜4 cm), covered with soil and grown in a greenhouse under good conditions for germination and growth. The trial plants were treated at the early leaf stage (BBCH10-BBCH12). In the course of this, the inventive compounds of the general formula (I) formulated in the form of wettable powders (WP) were sprayed onto the above-ground parts of the plants as an aqueous suspension with a water application rate corresponding to 800 l/ha with addition of wetting agent (e.g. 0.2% Genapol-LRO or 0.2% Mero) in the specified dose. This was followed by the application of the herbicide. For this purpose, mesosulfuron-methyl, formulated in the form of water-dispersible granules (WG), was sprayed onto the above-ground parts of the plants in the form of an aqueous dispersion with a water application rate corresponding to 800 l/ha with addition of wetting agent (e.g. 0.2% Genapol-LRO or 1 l/ha Biopower) in a dose of 40-60 g/ha. The dose of the herbicide was chosen here such that it causes visually apparent damage (min. 30%, max. 75%) compared to untreated crop plants at the evaluation time on a control group of crop plants without safener treatment that were included in the same trial. After application, the plants were cultivated under good growth conditions in a greenhouse. 9-13 days after application, the efficacy of the test compounds was assessed visually. For this purpose, the appearance of the plants treated with the test compound and herbicide was compared to the corresponding herbicide controls (without safener; with clearly visible damage) and the untreated controls (without damage). The damage-reducing effect of the test compounds was expressed here separately for 2 repeats in graded efficacy codes according to the following scheme: • 0: no reduction in damage (appearance corresponding to the herbicide control) • 1: slight reduction in damage • 2: distinct reduction in damage • 3: significant reduction in damage • 4: complete reduction in damage (appearance corresponding to the untreated control) The trials show clear efficacy of the inventive compounds selected by way of example with regard to the reduction in damage to the summer barley crop plant (HORVS; cv. Montoya) caused by the herbicide mesosulfuron-methyl: […]

summer wheat (TRZAS) = test: Reduction of damage by mesosulfuron-methyl on summer wheat (safener action, greenhouse, post-emergence); type: in vivo, summer wheat (TRZAS; cv. Triso); set-up: key: 0: no reduction in damage (appearance corresponding to the herbicide control); 1: slight reduction in damage; 2: distinct reduction in damage; 3: significant reduction in damage; 4: complete reduction in damage (appearance corresponding to the untreated control); settings: then mesosulfuron-methyl 40-60 g/ha, visual assessment 9-13 days after application
Procedure: as §1, with “2.1” for “2.2”, “Wheat (TRZAS)” for “Barley (HORVS)”, “here” for “here separately for 2 repeats”, “wheat” for “barley”, “(TRZAS;” for “(HORVS;”, “Triso)” for “Montoya)”

Row | Compound | Efficacy of the safener (efficacy code) (summer barley (HORVS); safener 100 g/ha) | Efficacy of the safener (efficacy code) (summer wheat (TRZAS); safener 100 g/ha) | Efficacy of the safener (efficacy code) (summer barley (HORVS); safener 500 g/ha) | Efficacy of the safener (efficacy code) (summer wheat (TRZAS); safener 500 g/ha)
1 | COC(=O)COc1nc(-c2ccc(Cl)cn2)n(-c2ccc(F)cc2F)n1 [I.28-38, Methyl {[5-(5-chloropyridin-2-yl)-1-(2,4-difluorophenyl)-1H-1,2,4-triazol-3-yl]oxy}acetate] | 2 |  |  | 
2 | CCOC(=O)COc1nc(-c2ccc(F)cn2)n(-c2ccc(Cl)cc2F)n1 [I.32-49] | 2 | 2 |  | 
3 | O=C(COc1nc(-c2ccc(Cl)cn2)n(-c2ccc(F)cc2F)n1)OCC1CC1 [I.80-38, Cyclopropylmethyl {[5-(5-chloropyridin-2-yl)-1-(2,4-difluorophenyl)-1H-1,2,4-triazol-3-yl]oxy}acetate] |  | 2 |  | 
4 | O=C(O)COc1nc(-c2ccc(F)cn2)n(-c2ccc(F)cc2)n1 [I.33-4] |  | 2 |  | 
5 | O=C(COc1nc(-c2ccc(Cl)cn2)n(-c2ccc(F)cc2F)n1)OCC1CCCO1 (centres unmarked) [I.68-38] | 2 | 2 |  | 
6 | COCCOC(=O)COc1nc(-c2ccc(Cl)cn2)n(-c2ccc(F)cc2F)n1 [I.73-38] | 2-3 |  |  | 
7 | COC(=O)CCOC(=O)COc1nc(-c2ccc(Cl)cn2)n(-c2ccc(F)cc2F)n1 [I.67-38] |  | 2 |  | 
8 | CCOC(=O)COc1nc(-c2ccc(F)cn2)n(-c2ccc(Cl)cc2)n1 [I.32-7] | 2-3 | 2 |  | 
9 | O=C(COc1nc(-c2ccc(Cl)cn2)n(-c2ccc(F)cc2F)n1)OCC1CCOC1 (centres unmarked) [I.69-38] | 2-3 |  |  | 
10 | COC(=O)COc1nc(-c2ccc(F)cn2)n(-c2ccc(F)cc2Cl)n1 [I.31-48] | 2 | 2 |  | 
11 | CCOC(=O)COc1nc(-c2ccc(Cl)cn2)n(-c2ccccc2F)n1 [I.29-2] |  | 2 |  | 
12 | COC(=O)COc1nc(-c2ccc(F)cn2)n(-c2ccc(Cl)cc2)n1 [I.31-7] | 2 | 2 |  | 
13 | CCOC(=O)COc1nc(-c2ccc(F)cn2)n(-c2ccc(F)cc2)n1 [I.32-4] |  | 2 |  | 
14 | CCOC(=O)COc1nc(-c2ccc(F)cn2)n(-c2ccccc2F)n1 [I.32-2] |  | 2 |  | 
15 | COC(=O)COc1nc(-c2ncccc2F)n(-c2ccccc2)n1 [I.64-1] |  | 2 | 2 | 2
16 | COC(=O)COc1nc(-c2ncccc2F)n(-c2ccc(Cl)cc2F)n1 [I.64-49] |  |  | 2 | 2
17 | COC(=O)COc1nc(-c2ccncc2Cl)n(-c2ccc(Cl)cc2F)n1 [I.43-49] | 2 |  |  | 
18 | COC(=O)COc1nc(-c2ccc(F)cn2)n(-c2ccc(Cl)cc2F)n1 [I.31-49] | 2 | 2 |  | 
19 | COC(=O)COc1nc(-c2ccc(Cl)cn2)n(-c2ccc(Cl)cc2F)n1 [I.28-49] | 2 | 2 |  | 
20 | O=C(O)COc1nc(-c2ccc(Cl)cn2)n(-c2ccc(F)cc2F)n1 [I.30-38, {[5-(5-Chloropyridin-2-yl)-1-(2,4-difluorophenyl)-1H-1,2,4-triazol-3-yl]oxy}acetic acid] | 2 | 2 |  | 
21 | O=C(COc1nc(-c2ccc(Cl)cn2)n(-c2ccc(F)cc2F)n1)OCC1OCCO1 [I.70-38] | 2 |  |  | 
22 | CCOC(=O)COc1nc(-c2ccc(F)cn2)n(-c2ccc(F)cc2F)n1 [I.32-38] | 2 | 2 |  | 
23 | COC(=O)COc1nc(-c2ccc(F)cn2)n(-c2ccc(F)cc2F)n1 [I.31-38] |  | 2 |  | 
24 | CCOC(=O)COc1nc(-c2ccc(Cl)cn2)n(-c2ccc(F)cc2F)n1 [I.29-38] | 2 | 2 |  | 
25 | O=C(O)COc1nc(-c2ccc(F)cn2)n(-c2ccc(Cl)cc2F)n1 [I.33-49] |  | 2 |  | 
